In PubChem BioAssay AID192 (DTP/NCI, 2004):
Values joined by “and” are separate entries in the source; they are usually repeats but may differ in a detail not shown here. Equal values may be shown once. Toxic doses and inconclusive results are not listed.

Test system: BDF1 mice, B16 melanoma ip, median survival T/C
Assay: NCI In Vivo Anticancer Drug Screen. Data for tumor model B16 Melanoma (intraperitoneal) in B6D2F1 (BDF1) mice
Conditions: endpoint: median survival time, schedule: Q01DX009 (ip), higher = longer survival
Procedure, shortened: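 In this screen, activity was judged from survival or tumor size in treated versus vehicle-treated tumor-bearing mice, reported as T/C.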

[1] = dose: 25.0 mg/kg/injection, vehicle: saline with Tween-80
[2] = dose: 25.0 mg/kg/injection, vehicle: saline
[3] = dose: 50.0 mg/kg/injection, vehicle: saline with Tween-80
[4] = dose: 50.0 mg/kg/injection, vehicle: saline
[5] = dose: 100.0 mg/kg/injection, vehicle: saline

## COc1ccc(N=O)c(O)c1
dose: 6.25 mg/kg/injection, vehicle: saline with Tween-80
  T/C: 97 % of control
dose: 12.5 mg/kg/injection, vehicle: saline with Tween-80
  T/C: 97 % of control
[1]
  T/C: 90 % of control
[2]
  T/C: 197 % of control
[3]
  T/C: 109 % of control
[4]
  T/C: 95 % of control
[5]
  T/C: 90 % of control

## Nc1ncnc(N)c1N=O
[4]
  T/C: 118 % of control
[5]
  T/C: 115 % of control

## C=CCOC(=O)C1CC(C(=O)OCC=C)C(C(=O)OCC=C)C1C(=O)OCC=C (stereo not drawn)
dose: 50.0 mg/kg/injection, vehicle: other
  T/C: 96 % of control
dose: 100.0 mg/kg/injection, vehicle: other
  T/C: 105 % of control
dose: 200.0 mg/kg/injection, vehicle: other
  T/C: 98 % of control

## C[N+](C)(C)c1ncnc2nc[nH]c12
dose: 12.5 mg/kg/injection, vehicle: saline
  T/C: 92 % of control
[2]
  T/C: 89 % of control
[4]
  T/C: 93 % of control
[5]
  T/C: 103 % of control
dose: 200.0 mg/kg/injection, vehicle: saline
  T/C: 87 % of control

## OCC#CCOCC(O)CCl (stereo not drawn)
dose: 25.0 mg/kg/injection, vehicle: water
  T/C: 102 % of control
dose: 50.0 mg/kg/injection, vehicle: water
  T/C: 98 % of control
dose: 100.0 mg/kg/injection, vehicle: water
  T/C: 92 % of control

## CCOc1ccnc(OCC)n1
[1]
  T/C: 96 % of control
[3]
  T/C: 101 % of control
dose: 100.0 mg/kg/injection, vehicle: saline with Tween-80
  T/C: 99 % of control

## CC[C@@H](C)[C@@H]1NC(=O)C(NC(=O)C(CC(C)C)N(C)C(=O)C2CCCN2C(=O)C(C)O)C(C)OC(=O)C(Cc2ccc(OC)cc2)N(C)C(=O)C2CCCN2C(=O)C(CC(C)C)NC(=O)C(C)C(=O)C(C(C)C)OC(=O)C[C@H]1O (stereo partly drawn)
dose: 80.0 micrograms/kg/injection, vehicle: clinical formulation
  T/C: 161 % of control
dose: 160.0 micrograms/kg/injection, vehicle: clinical formulation
  T/C: 160 % of control
dose: 160.0 micrograms/kg/injection, vehicle: distilled water + alcohol
  T/C: 160 % of control
dose: 320.0 micrograms/kg/injection, vehicle: clinical formulation
  T/C: 153 % of control
dose: 320.0 micrograms/kg/injection, vehicle: distilled water + alcohol
  T/C: 172 % of control

## C[CH2][Pb]([CH2]C)([CH2]C)[O]C(=O)COC
dose: 1.56 mg/kg/injection, vehicle: Klucel (hydroxypropylcellulose) (HPC)
  T/C: 96 % of control
dose: 3.13 mg/kg/injection, vehicle: Klucel (hydroxypropylcellulose) (HPC)
  T/C: 105 % of control

## CC1=CC(=Nc2ccc(N(CCCl)CCCl)cc2)C=C(C)C1=O
dose: 3.12 mg/kg/injection, vehicle: Klucel (hydroxypropylcellulose) (HPC)
  T/C: 102 % of control and 110 % of control
dose: 12.5 mg/kg/injection, vehicle: Klucel (hydroxypropylcellulose) (HPC)
  T/C: 160 % of control
dose: 25.0 mg/kg/injection, vehicle: Klucel (hydroxypropylcellulose) (HPC)
  T/C: 160 % of control
dose: 100.0 mg/kg/injection, vehicle: Klucel (hydroxypropylcellulose) (HPC)
  T/C: 158 % of control

## COc1c2c(cc3c1OCO3)CCN(C)C2
dose: 10.0 mg/kg/injection, vehicle: saline
  T/C: 95 % of control
dose: 20.0 mg/kg/injection, vehicle: saline
  T/C: 99 % of control
dose: 40.0 mg/kg/injection, vehicle: saline
  T/C: 100 % of control
dose: 80.0 mg/kg/injection, vehicle: saline
  T/C: 91 % of control
